Common to all, as to assay type: functional
Assay [1] deals with Bacteroides fragilis. Description: Antimicrobial activity against Bacteroides fragilis MN4a.
In assay [2] the test system is Bacteroides fragilis. Description: Antimicrobial activity against Bacteroides fragilis MN35 after 24 hrs by agar dilution method. The settings on record: MN35, 24 h.
The subject of assay [3] is Bacteroides fragilis. Description: Antimicrobial activity against Bacteroides fragilis MN32 imipenemase activity after 24 hrs by agar dilution method. Particulars: MN32, 24 h.
The subject of assay [4] is Bacteroides fragilis. Description: Antimicrobial activity against Bacteroides fragilis MN41 after 24 hrs by agar dilution method. The settings on record: MN41, 24 h.
The test system of assay [5] is Bacteroides fragilis. Description: Antimicrobial activity against Bacteroides fragilis MN11 expressing imipenemase activity after 24 hrs by agar dilution method. The settings on record: MN11, 24 h.
In assay [6] the test system is Bacteroides fragilis. Description: Antimicrobial activity against Bacteroides fragilis MN5 after 24 hrs by agar dilution method. Particulars: MN5, 24 h.
For assay [7], the system named is Bacteroides fragilis. Description: Antimicrobial activity against Bacteroides fragilis MN36 after 24 hrs by agar dilution method. The settings on record: MN36, 24 h.

In ChEMBL document CHEMBL1649482, “Gene Context and DNA rearrangements in the carbapenemase locus of division II strains of Bacteroides fragilis” (2009) one finds MIC data, which are given here for one compound.

Converted amounts (≈) assume the structure as drawn.

Take `C[C@@H](O)[C@H]1C(=O)N2C(C(=O)O)=C(SCCNC=N)C[C@H]12` [IMIPENEM ANHYDROUS]: the MIC came to 0.5 µg/mL (≈ 1.67 µM) in the assay on Bacteroides fragilis [1]; 0.25 µg/mL (≈ 0.835 µM) with Bacteroides fragilis [2]; 128 µg/mL (≈ 428 µM) in the assay on Bacteroides fragilis [3]; 0.25 µg/mL (≈ 0.835 µM) against Bacteroides fragilis [4]; 256 µg/mL (≈ 855 µM) against Bacteroides fragilis [5]; 0.25 µg/mL (≈ 0.835 µM) in the assay with Bacteroides fragilis [6]. This compound had a minimal inhibitory concentration (MIC) in the assay with Bacteroides fragilis [7] of 0.25 µg/mL (≈ 0.835 µM).
